# From ChEMBL document CHEMBL3627615, “Discovery of the disubstituted oxazole analogues as a novel class anti-tuberculotic agents against MDR- and XDR-MTB” (Bioorg Med Chem Lett, 2015)
# Columns and labels:
# [1] = system: HEK293; experiment: Cytotoxicity against human HEK293 cells after 36 hrs by MTT assay; type: cell-based; conditions: HEK293, 36 h
# [2] = system: Mycobacterium tuberculosis; experiment: Antimycobacterial activity against Mycobacterium tuberculosis H37Rv ATCC 27294 after 5 days by microplate alamar blue assay; type: functional; conditions: H37Rv ATCC 27294, 120 h
# [3] = system: Staphylococcus aureus; experiment: Antibacterial activity against Staphylococcus aureus by agar dilution method; type: functional
# [4] = system: Proteus mirabilis; experiment: Antibacterial activity against Proteus mirabilis by agar dilution method; type: functional
# [5] = system: Klebsiella pneumoniae; experiment: Antibacterial activity against Klebsiella pneumoniae by agar dilution method; type: functional
# [6] = system: Escherichia coli; experiment: Antibacterial activity against Escherichia coli by agar dilution method; type: functional
# [7] = system: Pseudomonas aeruginosa; experiment: Antibacterial activity against Pseudomonas aeruginosa by agar dilution method; type: functional
# [8] = system: Serratia marcescens; experiment: Antibacterial activity against Serratia marcescens by agar dilution method; type: functional
# [9] = system: Acinetobacter calcoaceticus; experiment: Antibacterial activity against Acinetobacter calcoaceticus by agar dilution method; type: functional
# [10] = system: Proteus vulgaris; experiment: Antibacterial activity against Proteus vulgaris by agar dilution method; type: functional
SMILES,IC50 [1] [µg/mL],MIC90 [2] [µg/mL],also measured
COc1ccc(C(=O)C2CCN(Cc3coc(-c4ccc(F)cc4)n3)CC2)cc1OC,> 150,8,
O=C(c1ccc2c(c1)OCCO2)C1CCN(Cc2coc(-c3ccc(F)cc3)n2)CC1,> 150,8,
O=C(c1ccc2c(c1)OCCO2)C1CCN(Cc2coc(-c3ccc(Cl)cc3)n2)CC1,> 150,2,MIC80 [3]: > 128 µg/mL; MIC80 [4]: > 128 µg/mL; MIC80 [5]: > 128 µg/mL; MIC80 [6]: > 128 µg/mL; MIC80 [7]: > 128 µg/mL; MIC80 [8]: > 128 µg/mL; MIC80 [9]: > 128 µg/mL; MIC80 [10]: > 128 µg/mL
O=C(c1ccc2c(c1)OCCO2)C1CCN(Cc2coc(-c3ccc(Br)cc3)n2)CC1,> 150,8,
O=C(c1ccc2c(c1)OCCO2)C1CCN(Cc2coc(-c3ccccc3)n2)CC1,> 150,4,
O=C(c1ccc2c(c1)OCCO2)C1CCN(Cc2coc(-c3ccc(C(F)(F)F)cc3)n2)CC1,> 150,32,
O=C(c1ccc2c(c1)OCCO2)C1CCN(Cc2coc(-c3ccc(F)c(F)c3)n2)CC1,> 150,8,
O=C(c1ccc2c(c1)OCCO2)C1CCN(Cc2coc(-c3ccccc3F)n2)CC1,> 150,8,
O=C(c1ccc2c(c1)OCCO2)C1CCN(Cc2coc(-c3cccc(F)c3)n2)CC1,> 150,4,
COc1ccc(-c2nc(CN3CCC(C(=O)c4ccc5c(c4)OCCO5)CC3)co2)cc1,> 150,8,
Cc1ccc(-c2nc(CN3CCC(C(=O)c4ccc5c(c4)OCCO5)CC3)co2)cc1,> 150,64,
CC(C)(C)c1ccc(-c2nc(CN3CCC(C(=O)c4ccc5c(c4)OCCO5)CC3)co2)cc1,> 150,8,MIC80 [3]: > 128 µg/mL; MIC80 [4]: > 128 µg/mL; MIC80 [5]: > 128 µg/mL; MIC80 [6]: > 128 µg/mL; MIC80 [7]: > 128 µg/mL; MIC80 [8]: > 128 µg/mL; MIC80 [9]: > 128 µg/mL; MIC80 [10]: > 128 µg/mL
O=C(c1ccc2c(c1)OCCO2)C1CCN(Cc2coc(-c3cccnc3)n2)CC1,> 150,32,
O=C(c1ccc2c(c1)OCCO2)C1CCN(Cc2coc(-c3ccco3)n2)CC1,> 150,16,
O=C(c1ccc2c(c1)OCCO2)C1CCN(Cc2coc(-c3ccoc3)n2)CC1,> 150,32,
O=C(c1ccc2c(c1)OCCO2)C1CCN(Cc2csc(-c3ccc(Cl)cc3)n2)CC1,,> 128,
CC(C)(C)c1ccc(-c2nc(CN3CCC(C(=O)c4ccc5c(c4)OCCO5)CC3)cs2)cc1,,> 128,
O=C(c1ccc2c(c1)OCCO2)C1CCN(Cc2cc(-c3ccc(F)cc3)on2)CC1,,> 128,
O=C(c1ccc2c(c1)CCCC2)C1CCN(Cc2coc(-c3ccc(F)cc3)n2)CC1,> 150,1,MIC80 [3]: > 128 µg/mL; MIC80 [4]: > 128 µg/mL; MIC80 [5]: > 128 µg/mL; MIC80 [6]: > 128 µg/mL; MIC80 [7]: > 128 µg/mL; MIC80 [8]: > 128 µg/mL; MIC80 [9]: > 128 µg/mL; MIC80 [10]: > 128 µg/mL
O=C(c1ccc(F)c(F)c1)C1CCN(Cc2coc(-c3ccc(F)cc3)n2)CC1,> 150,2,
O=C(c1ccccc1)C1CCN(Cc2coc(-c3ccc(F)cc3)n2)CC1,> 150,2,
Cc1ccc(C(=O)C2CCN(Cc3coc(-c4ccc(F)cc4)n3)CC2)cc1C,> 150,8,
Cc1ccc(C(=O)C2CCN(Cc3coc(-c4ccc(F)cc4)n3)CC2)cc1,> 150,4,
COc1ccc(C(=O)C2CCN(Cc3coc(-c4ccc(F)cc4)n3)CC2)cc1,> 150,4,
CC(C)(C)c1ccc(-c2nc(CN3CCC(C(=O)c4ccc5c(c4)CCCC5)CC3)co2)cc1,> 150,8,
CC[C@@H](CO)NCCN[C@@H](CC)CO [ETHAMBUTOL],,< 0.5,
NNC(=O)c1ccncc1 [ISONIAZID],,< 0.5,
CO[C@H]1/C=C/O[C@@]2(C)Oc3c(C)c(O)c4c(O)c(c(/C=N/N5CCN(C)CC5)c(O)c4c3C2=O)NC(=O)/C(C)=C\C=C\[C@H](C)[C@H](O)[C@@H](C)[C@@H](O)[C@@H](C)[C@H](OC(C)=O)[C@@H]1C [RIFAMPIN],,< 0.5,
CN[C@@H]1[C@H](O[C@H]2[C@H](O[C@H]3[C@H](O)[C@@H](O)[C@H](N=C(N)N)[C@@H](O)[C@@H]3N=C(N)N)O[C@@H](C)[C@]2(O)C=O)O[C@@H](CO)[C@H](O)[C@H]1O [STREPTOMYCIN],,< 0.5,
